One molecule from paper PMC5705267 (Synapse (New York, N.Y.), 2017) can be followed below.

The test concerns the target GHSR1a (growth hormone secretagogue receptor 1a, ghrelin receptor) (Homo sapiens, UniProt Q92847). Briefly: aequorin Ca2+ mobilization, antagonism of L-692, […] in HEK293 cells. The class given is cell-based. On the technique in general: Calcium assays in cells follow changes in intracellular calcium, usually with a dye or a luminescent sensor.

The IC50 is the concentration that inhibits the measured activity by half.

Sequence of GHSR1a (growth hormone secretagogue receptor 1a, ghrelin receptor) (Q92847 whole entry): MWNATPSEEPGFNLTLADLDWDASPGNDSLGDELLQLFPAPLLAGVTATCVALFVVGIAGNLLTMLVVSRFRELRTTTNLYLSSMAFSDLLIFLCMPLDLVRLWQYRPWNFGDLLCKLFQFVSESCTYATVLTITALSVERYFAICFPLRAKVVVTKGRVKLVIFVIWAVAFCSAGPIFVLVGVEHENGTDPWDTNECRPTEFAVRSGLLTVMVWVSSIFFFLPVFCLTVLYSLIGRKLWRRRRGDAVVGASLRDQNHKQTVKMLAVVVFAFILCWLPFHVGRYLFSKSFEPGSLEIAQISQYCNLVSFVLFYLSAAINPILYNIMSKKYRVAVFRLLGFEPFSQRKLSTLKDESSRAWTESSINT

In the case of `Cc1nc2ccc(Oc3ccc(F)cc3)cc2c(=O)n1C[C@H]1CCCN(C(C)C)C1` [YIL781], the IC50 amounted to 0.185 µM.
